Reference: patent US20040106545A1, “Compounds and methods for modulating cell adhesion” (priority 1996, published 2004)
Values joined by “and” are separate entries in the source; they are usually repeats but may differ in a detail not shown here. Identical values can stand only once.

How the values were obtained:
human skin = assay: Human skin permeability, Franz Cell apparatus
Procedure: Another cell adhesion assay involves evaluating the effect of a modulating agent on permeability of adherent epithelial and/or endothelial cell layers. For example, the effect on permeability of human skin may be evaluated. Such skin may be derived from a natural source or may be synthetic. Human abdominal skin for use in such assays may generally be obtained from humans at autopsy within 24 hours of death. Briefly, a cyclic peptide and a test marker (e.g., the fluorescent markers Oregon Green™ and Rhodamine Green™ Dextran) may be dissolved in a sterile buffer, and the ability of the marker to penetrate through the skin and into a receptor fluid may be measured using a Franz Cell apparatus (Franz, Curr. Prob. Dermatol. 7:58-68, 1978; Franz, J. Invest. Dermatol. 64:190-195, 1975). In general, a modulating agent that enhances the permeability of human skin results in a statistically significant increase in the amount of marker in the receptor compartment after 6-48 hours in the presence of 500 μg/mL modulating agent. This assay evaluates the effect of a modulating agent on E-cadherin mediated cell adhesion.
Abdominal skin from humans at autopsy within 24 hours of death was used in these assays. The effect of N—Ac-CHAVC-NH2 (SEQ ID NO:10) and N—Ac-CHGVC-NH2 (SEQ ID NO:11), used at a concentration of 500 μg/ml or 2.5 mg/ml, on the penetration of two fluorescent markers, Oregon Green 488 (charge −1, MW 386 daltons) and Rhodamine Green 3000 Dextran (no charge, MW 3000 daltons) through human skin was then evaluated utilizing a Franz Cell apparatus (Franz, Curr. Prob. Dermatol. 7:58-68, 1978; Franz, J. Invest. Dermatol. 64:190-195, 1975). The peptides and markers were dissolved in sterile phosphate buffer, pH 7.2, and phosphate buffer was used as the receptor fluid. 150 μl of solution containing 0.2 mg Oregon Green and 1.0 mg Rhodamine Green was used to evaluate 500 μg/ml peptide; 200 μl of solution containing 0.05 mg Oregon Green and 1.250 mg Rhodamine Green was used to evaluate 2.5 mg/ml peptide. The solution was placed on top of the epidermal side of the skin, and the penetration of the markers through the skin was assessed using a fluorescent spectrophotometric method (in a Perkin Elmer 650-105 Fluorescence Spectrophotometer, and comparing the reading to a standard curve) at 6, 12, 24, 36, and 48 hours after the start of the experiment. The fluorescent units were converted to a concentration unit of microgram/5 ml (volume of the receiver compartment) using a standard curve and regression analysis equations. The curve was linear for the concentrations tested for both markers (r^2=1 for OrG and 0.997 for RhG). For each peptide and marker combination, the experiment was performed in triplicate.

[1] = Cytotoxicity, MTT assay, HMVEC; assay type: cell-based; conditions: human, HMVEC (human microvascular endothelial cells), read-out: HMVEC Cytotox (IC50)
Procedure: (§1) N—Ac-CHAVC-NH2 (SEQ ID NO:10) and the control peptide N—Ac-CHGVC-NH2 (SEQ ID NO:11) were evaluated for possible cytotoxic effects on human microvascular endothelial (HMVEC; Clonetics), human umbilical vein endothelial (HUVEC; ATCC #CRL-1730), IAFp2 (human fibroblast cell line; Institute Armand-Frapier, Montreal, Quebec), WI-38 (human fibroblast cell line; ATCC #CCL-75), MDA-MB231 (human breast cancer cell line; ATCC #HTB-26), and PC-3 (human prostate cancer cell line; ATCC #CRL-1435) cells utilizing the MTT assay (Plumb et al., Cancer Res. 49:4435-4440, 1989). Neither of the peptides was cytotoxic at concentrations up to and including 100 μM. Similarly, neither of the peptides was capable of inhibiting the proliferation of the above cell lines at concentrations up to 100 μM, as judged by ^3H-thymidine incorporation assays.

[2] = Cytotoxicity, MTT assay, WI-38; assay type: cell-based; conditions: human, WI-38 cells (human fibroblast cell line), read-out: WI-38 Cytotox (IC50)
Procedure: as §1

[3] = 500 μg/ml Peptide, t = 6 hours, Mean
[4] = 500 μg/ml Peptide, t = 6 hours, single replicates, listed as Sample#3
[5] = 500 μg/ml Peptide, t = 12 hours, Mean
[6] = 500 μg/ml Peptide, t = 12 hours, single replicates, listed as Sample#3
[7] = 500 μg/ml Peptide, t = 24 hours, Mean
[8] = 500 μg/ml Peptide, t = 24 hours, single replicates, listed as Sample#3
[9] = 500 μg/ml Peptide, t = 36 hours, Mean
[10] = 500 μg/ml Peptide, t = 36 hours, single replicates, listed as Sample#3
[11] = 500 μg/ml Peptide, t = 48 hours, Mean
[12] = 500 μg/ml Peptide, t = 48 hours, single replicates, listed as Sample#3
[13] = 2.5 mg/ml Peptide, t = 6 hours, Mean
[14] = 2.5 mg/ml Peptide, t = 6 hours, single replicates, listed as Sample#3
[15] = 2.5 mg/ml Peptide, t = 12 hours, Mean
[16] = 2.5 mg/ml Peptide, t = 12 hours, single replicates, listed as Sample#3
[17] = 2.5 mg/ml Peptide, t = 24 hours, Mean
[18] = 2.5 mg/ml Peptide, t = 24 hours, single replicates, listed as Sample#3
[19] = 2.5 mg/ml Peptide, t = 36 hours, Mean
[20] = 2.5 mg/ml Peptide, t = 36 hours, single replicates, listed as Sample#3
[21] = 2.5 mg/ml Peptide, t = 48 hours, Mean
[22] = 2.5 mg/ml Peptide, t = 48 hours, single replicates, listed as Sample#3

CC(=O)N[C@H]1CSSC[C@@H](C(N)=O)NC(=O)[C@H](C(C)C)NC(=O)CNC(=O)[C@H](Cc2c[nH]cn2)NC1=O [N—Ac—CHGVC—NH2, reference compound]
Percutaneous absorption concentration for Dextran Rhodamine Green 3000 (human skin; [3]): 0.23 mg/5ml
Percutaneous absorption concentration for Oregon Green 488 (human skin; [3]): 0.055 mg/5ml
Percutaneous absorption concentration for Dextran Rhodamine Green 3000 (human skin; [4]): 0.2 mg/5ml (2×) and 0.3 mg/5ml
Percutaneous absorption concentration for Oregon Green 488 (human skin; [4]): 0.098 mg/5ml and 0.022 mg/5ml and 0.045 mg/5ml
Percutaneous absorption concentration for Dextran Rhodamine Green 3000 (human skin; [5]): 0.67 mg/5ml
Percutaneous absorption concentration for Oregon Green 488 (human skin; [5]): 0.132 mg/5ml
Percutaneous absorption concentration for Dextran Rhodamine Green 3000 (human skin; [6]): 0.6 mg/5ml and 1.0 mg/5ml and 0.4 mg/5ml
Percutaneous absorption concentration for Oregon Green 488 (human skin; [6]): 0.200 mg/5ml and 0.107 mg/5ml and 0.088 mg/5ml
Percutaneous absorption concentration for Dextran Rhodamine Green 3000 (human skin; [7]): 1.07 mg/5ml
Percutaneous absorption concentration for Oregon Green 488 (human skin; [7]): 0.698 mg/5ml
Percutaneous absorption concentration for Dextran Rhodamine Green 3000 (human skin; [8]): 1.0 mg/5ml and 1.4 mg/5ml and 0.8 mg/5ml
Percutaneous absorption concentration for Oregon Green 488 (human skin; [8]): 0.709 mg/5ml and 0.864 mg/5ml and 0.522 mg/5ml
Percutaneous absorption concentration for Dextran Rhodamine Green 3000 (human skin; [9]): 1.2 mg/5ml
Percutaneous absorption concentration for Oregon Green 488 (human skin; [9]): 0.802 mg/5ml
Percutaneous absorption concentration for Dextran Rhodamine Green 3000 (human skin; [10]): 1.0 mg/5ml (2×) and 1.6 mg/5ml
Percutaneous absorption concentration for Oregon Green 488 (human skin; [10]): 0.769 mg/5ml and 0.923 mg/5ml and 0.714 mg/5ml
Percutaneous absorption concentration for Dextran Rhodamine Green 3000 (human skin; [11]): 2.99 mg/5ml
Percutaneous absorption concentration for Oregon Green 488 (human skin; [11]): 0.902 mg/5ml
Percutaneous absorption concentration for Dextran Rhodamine Green 3000 (human skin; [12]): 1.8 mg/5ml (2×) and 5.370 mg/5ml
Percutaneous absorption concentration for Oregon Green 488 (human skin; [12]): 0.923 mg/5ml and 1.021 mg/5ml and 0.764 mg/5ml
Percutaneous absorption concentration for Dextran Rhodamine Green 3000 (human skin; [13]): 1.93 mg/5ml
Percutaneous absorption concentration for Oregon Green 488 (human skin; [13]): 0.04 mg/5ml
Percutaneous absorption concentration for Dextran Rhodamine Green 3000 (human skin; [14]): 1.8 mg/5ml and 0.2 mg/5ml and 3.8 mg/5ml
Percutaneous absorption concentration for Oregon Green 488 (human skin; [14]): 0.04 mg/5ml and 0.01 mg/5ml and 0.06 mg/5ml
Percutaneous absorption concentration for Dextran Rhodamine Green 3000 (human skin; [15]): 8.97 mg/5ml
Percutaneous absorption concentration for Oregon Green 488 (human skin; [15]): 0.07 mg/5ml
Percutaneous absorption concentration for Dextran Rhodamine Green 3000 (human skin; [16]): 17.02 mg/5ml and 2.0 mg/5ml and 7.89 mg/5ml
Percutaneous absorption concentration for Oregon Green 488 (human skin; [16]): 0.11 mg/5ml and 0.04 mg/5ml and 0.08 mg/5ml
Percutaneous absorption concentration for Dextran Rhodamine Green 3000 (human skin; [17]): 15.64 mg/5ml
Percutaneous absorption concentration for Oregon Green 488 (human skin; [17]): 0.16 mg/5ml
Percutaneous absorption concentration for Dextran Rhodamine Green 3000 (human skin; [18]): 27.47 mg/5ml and 5.56 mg/5ml and 13.9 mg/5ml
Percutaneous absorption concentration for Oregon Green 488 (human skin; [18]): 0.12 mg/5ml and 0.11 mg/5ml and 0.26 mg/5ml
Percutaneous absorption concentration for Dextran Rhodamine Green 3000 (human skin; [19]): 19.73 mg/5ml
Percutaneous absorption concentration for Oregon Green 488 (human skin; [19]): 0.25 mg/5ml
Percutaneous absorption concentration for Dextran Rhodamine Green 3000 (human skin; [20]): 33.06 mg/5ml and 5.79 mg/5ml and 20.35 mg/5ml
Percutaneous absorption concentration for Oregon Green 488 (human skin; [20]): 0.23 mg/5ml and 0.22 mg/5ml and 0.29 mg/5ml
Percutaneous absorption concentration for Dextran Rhodamine Green 3000 (human skin; [21]): 25.53 mg/5ml
Percutaneous absorption concentration for Oregon Green 488 (human skin; [21]): 0.36 mg/5ml
Percutaneous absorption concentration for Dextran Rhodamine Green 3000 (human skin; [22]): 40.86 mg/5ml and 8.25 mg/5ml and 27.48 mg/5ml
Percutaneous absorption concentration for Oregon Green 488 (human skin; [22]): 0.36 mg/5ml and 0.26 mg/5ml and 0.46 mg/5ml
IC50 [1]: > 100 µM
IC50 [2]: > 100 µM
